Values after ≈ are worked out from the molar mass of the structure shown. Where two headings read alike, the source gives them in different places.
Experiments:
M. tuberculosis H37Rv [1] = assay: Microdilution alamarBlue assay (MABA) MIC; format: cell-based; conditions: Mycobacterium tuberculosis
M. bovis BCG = assay: microbe, parasite or virus in culture; format: cell-based; conditions: Mycobacterium tuberculosis variant bovis BCG
[2] = tested on: BCG::pMV306PHsp60 strains overexpressing menG; format: cell-based, Mycobacterium bovis BCG
M. fortuitum = assay: MABA MIC; format: cell-based, Mycobacterium fortuitum; conditions: Mycolicibacterium fortuitum
M. abcessus = assay: MABA MIC; format: cell-based, Mycobacterium abscessus; conditions: Mycobacteroides abscessus
M. smegmatis = assay: MABA MIC; format: cell-based, Mycobacterium smegmatis; conditions: Mycolicibacterium smegmatis
M. marinum = assay: MABA MIC; format: cell-based; conditions: Mycobacterium marinum
M. avium = assay: MABA MIC; format: cell-based, Mycobacterium avium subsp. avium; conditions: Mycobacterium avium
A. baumanii = assay: MABA MIC; format: cell-based; conditions: Acinetobacter baumannii
E. cloacae = assay: MABA MIC; format: cell-based; conditions: Enterobacter cloacae
E. faecium = assay: MABA MIC; format: cell-based; conditions: Enterococcus faecium
Klebsiella pneumoniae = assay: MABA MIC; format: cell-based
Pseudomonas aeruginosa = assay: MABA MIC; format: cell-based
S. aureus MRSA = assay: MABA MIC; format: cell-based; conditions: Staphylococcus aureus
S. epidemis 14490 = assay: MABA MIC; format: cell-based; conditions: Staphylococcus epidermidis
Bacillus cereus = assay: MABA MIC; format: cell-based
Burkholderia cepacia = assay: MABA MIC; format: cell-based
[3] = tested on: Yersinia pseudotuberculosis; assay: microbe, parasite or virus in culture; format: cell-based
Brucella neotomae = assay: microbe, parasite or virus in culture; format: cell-based
Francisella philomiragia = assay: microbe, parasite or virus in culture; format: cell-based
Legionella pneumophila = assay: microbe, parasite or virus in culture; format: cell-based
[4] = tested on: nontuberculous mycobacteria (NTM); assay: organism not typed; format: cell-based
[5] = tested on: PcydAB promoter (cydAB operon) reporter; format: cell-based, Mycobacterium bovis BCG
[6] = tested on: M. tuberculosis mc^26206 in J774A.1 murine macrophages; format: cell-based; conditions: J774A.1 macrophages, 3 days, concentrations equivalent to in vitro MIC
[7] = tested on: BCG overexpressing menG_F118L; format: cell-based; conditions: 20 µg/ml of DG70, 7 days, CFU
[8] = tested on: menaquinone biosynthesis (MenG); format: cell-based, Mycobacterium bovis BCG
[9] = tested on: mycobacterial oxygen consumption; assay: Oxygen consumption, methylene blue decolorization; format: cell-based
ATP synthesis in BCG = format: cell-based, Mycobacterium bovis BCG
[10] = tested on: nonreplicating M. tuberculosis; format: cell-based, Mycobacterium tuberculosis; conditions: for reduction of CFU: 7 days, M. tuberculosis starved 6 weeks in PBS
M. tuberculosis H37Rv [11] = assay: Checkerboard alamarBlue compound interaction assay; format: cell-based, Mycobacterium tuberculosis
BCG = format: cell-based, Mycobacterium bovis BCG
in vitro [12] = conditions: African green monkey
in vitro [13] = conditions: mouse, microsomes

For COc1ccc(-c2cc(NC(=O)c3ccc(F)cc3Cl)ccc2OC)cc1 [DG70, 2-chloro-N-(4',6-dimethoxy-[1,1'-biphenyl]-3-yl)-4-fluorobenzamide], the MIC90 (M. tuberculosis H37Rv [1]; H37Rv + 400 µM MK4, read-out: MIC90) was 9.6 µg/mL, the MIC90 (M. tuberculosis H37Rv [1]; H37Rv, lab strain, […], read-out: MIC90) was 4.8 µg/mL (≈ 12.4 µM) and the MIC (M. tuberculosis H37Rv [1]; M. tuberculosis (Table S1), read-out: MIC) was 4.8 µg/mL (≈ 12.4 µM). The MIC (M. tuberculosis H37Rv [1]; Table S2, parent H37Rv, read-out: MIC in Mtb H37Rv) was 2.4 µg/mL (≈ 6.22 µM), the MIC (M. tuberculosis H37Rv [1]; whole-cell activity versus M. tuberculosis, […], read-out: MIC) was 2.4 µg/mL (≈ 6.22 µM) and the MIC (M. bovis BCG) was 2.4 µg/mL (≈ 6.22 µM). For the same compound, the “increase of DG70 MIC on overexpression of menG” value [2] was 4 ×, the MIC (M. fortuitum) was greater than 40 µg/mL and the MIC (M. abcessus) was greater than 40 µg/mL. It also gave an MIC (M. smegmatis) greater than 40 µg/mL, an MIC (M. marinum) greater than 40 µg/mL and an MIC (M. avium) greater than 40 µg/mL. It also gave an MIC (A. baumanii) greater than 20 µg/mL, an MIC (E. cloacae) greater than 20 µg/mL and an MIC (E. faecium) greater than 20 µg/mL. For the same compound, the MIC (Klebsiella pneumoniae) was greater than 20 µg/mL, the MIC (Pseudomonas aeruginosa) was greater than 20 µg/mL and the MIC (S. aureus MRSA) was greater than 20 µg/mL. It also gave an MIC (S. epidemis 14490) greater than 20 µg/mL, an MIC (Bacillus cereus) greater than 40 µg/mL and an MIC (Burkholderia cepacia) greater than 40 µg/mL. For the same compound, the MIC [3] was greater than 40 µg/mL, the MIC (Brucella neotomae) was greater than 40 µg/mL and the MIC (Francisella philomiragia) was greater than 40 µg/mL. The MIC (Legionella pneumophila) was greater than 40 µg/mL, the MIC [4] was greater than 100 µM and the “activity against NTM and other bacteria” value [4] was “lacked activity”. For the same compound, the “peak PcydAB induction” value [5] was 3.1 fold, the “intracellular M. tuberculosis growth in macrophages” value [6] was “inhibited intracellular M. tuberculosis growth” and the “growth inhibition of strain overexpressing menG_F118L” value [7] was “completely resistant”. The “[14C]methyl incorporation into menaquinone” value [8] was “complete suppression”, the “oxygen consumption (methylene blue decolorization at 665 nm)” value [9] was “strongly prevented decolorization of methylene blue” and the “effect of MK4 supplementation on inhibition of oxygen consumption” value ([9]; 400 µM MK4) was “rescued”. For the same compound, the “effect of MK4 supplementation on inhibition of ATP synthesis” value (ATP synthesis in BCG) was “rescued”, the “intracellular ATP levels” value (ATP synthesis in BCG) was “significant decrease in ATP levels” and the “effect of MK4 on killing of nutrient-deprived M. tuberculosis” value ([10]; 400 µM MK4) was “reversed”. For the same compound, the “reduction of CFU” value ([10]; 5× MIC) was 4 log10, the “reduction of CFU” value ([10]; 10× MIC) was 6.5 log10 and the “MIC In combination” value (M. tuberculosis H37Rv [11]; DG70 in combination with BDQ) was 1.5 µM. For the same compound, the “MIC In combination” value (M. tuberculosis H37Rv [11]; DG70 in combination with EMB) was 1.5 µM, the “MIC In combination” value (M. tuberculosis H37Rv [11]; DG70 in combination with INH) was 3.12 µM and the “MIC In combination” value (M. tuberculosis H37Rv [11]; DG70 in combination with PA824) was 0.35 µM. For the same compound, the “MIC In combination” value (M. tuberculosis H37Rv [11]; DG70 in combination with RIF) was 3.1 µM, the “MIC In combination” value (M. tuberculosis H37Rv [11]; DG70 in combination with THZ) was 3.12 µM and the FIC (M. tuberculosis H37Rv [11]; FIC of DG70 in combination with BDQ) was 0.1. The FIC (M. tuberculosis H37Rv [11]; FIC of DG70 in combination with EMB) was 0.12, the FIC (M. tuberculosis H37Rv [11]; FIC of DG70 in combination with INH) was 0.2 and the FIC (M. tuberculosis H37Rv [11]; FIC of DG70 in combination with PA824) was 0.03. For the same compound, the FIC (M. tuberculosis H37Rv [11]; FIC of DG70 in combination with RIF) was 0.25, the FIC (M. tuberculosis H37Rv [11]; FIC of DG70 in combination with THZ) was 0.2 and the MIC (M. tuberculosis H37Rv [11]; Mycobacterium tuberculosis, H37RV, drug alone, checkerboard) was 12.5 µM. The “effect of MK4 pretreatment on bactericidal activity” value (BCG) was “could be reversed”, the “killing (drop in CFU) over 21 days” value (BCG) was 5 log10 and the “killing in 4 days” value (BCG) was “less than 1 log10”. For the same compound, the “reduction of cultures after 2 days of treatment” value (BCG) was no more than 1 log10, the CC50 (in vitro [12]; 50% cytotoxic concentration (CC50), Vero cells) was greater than 77 µg/mL and the CC50 (in vitro [12]; CC50, Vero cells, 48 h, MTT) was greater than 80 µg/mL. For the same compound, the microsomal CLint (in vitro [13]) was 921 µL/min/mg.

Source: PMC5312080 (mBio, 2017)
